Measured values published in ChEMBL document CHEMBL2380212, “Synthesis, single crystal and antitumor activities of benzimidazole-quinazoline hybrids” (Bioorg Med Chem Lett, 2013).

Columns and labels:
ACHN = assay: Cytotoxicity against human ACHN cells at 10 uM after 48 hrs by SRB assay; format: functional; conditions: read-out: GI
U-251 = assay: Cytotoxicity against human U251 cells at 10 uM after 48 hrs by SRB assay; format: functional; conditions: U-251, 48 h, read-out: GI
OVCAR-8 = assay: Cytotoxicity against human OVCAR8 cells at 10 uM after 48 hrs by SRB assay; format: functional; conditions: OVCAR-8, 48 h, read-out: GI
OVCAR-3 = assay: Cytotoxicity against human OVCAR3 cells at 10 uM after 48 hrs by SRB assay; format: functional; conditions: OVCAR-3, 48 h, read-out: GI
SNB-75 = assay: Cytotoxicity against human SNB75 cells at 10 uM after 48 hrs by SRB assay; format: functional; conditions: SNB-75, 48 h, read-out: GI
Hs-578T = assay: Cytotoxicity against human Hs578T cells at 10 uM after 48 hrs by SRB assay; format: functional; conditions: read-out: GI
IGROV-1 = assay: Cytotoxicity against human IGROV1 cells at 10 uM after 48 hrs by SRB assay; format: functional; conditions: IGROV-1, 48 h, read-out: GI
T47D = assay: Cytotoxicity against human T47D cells at 10 uM after 48 hrs by SRB assay; format: functional; conditions: read-out: GI
TK-10 = assay: Cytotoxicity against human TK10 cells at 10 uM after 48 hrs by SRB assay; format: functional; conditions: TK-10, 48 h, read-out: GI
786-0 = assay: Cytotoxicity against human 786-0 cells at 10 uM after 48 hrs by SRB assay; format: functional; conditions: 786-0, 48 h, read-out: GI
A549 = assay: Cytotoxicity against human A549 cells at 10 uM after 48 hrs by SRB assay; format: functional; conditions: A549, 48 h, read-out: GI
MDA-MB-468 = assay: Cytotoxicity against human MDA-MB-468 cells at 10 uM after 48 hrs by SRB assay; format: functional; conditions: MDA-MB-468, 48 h, read-out: GI
A498 = assay: Cytotoxicity against human A498 cells at 10 uM after 48 hrs by SRB assay; format: functional; conditions: A498, 48 h, read-out: GI
SK-MEL-28 = assay: Cytotoxicity against human SK-MEL-28 cells at 10 uM after 48 hrs by SRB assay; format: functional; conditions: SK-MEL-28, 48 h, read-out: GI
HL-60(TB) = assay: Cytotoxicity against human HL-60(TB) cells at 10 uM after 48 hrs by SRB assay; format: functional; conditions: HL-60, 48 h, read-out: GI
RXF 393 = assay: Cytotoxicity against human RXF393 cells at 10 uM after 48 hrs by SRB assay; format: functional; conditions: RXF 393, 48 h, read-out: GI
SK-OV-3 = assay: Cytotoxicity against human SKOV3 cells at 10 uM after 48 hrs by SRB assay; format: functional; conditions: SK-OV-3, 48 h, read-out: GI
NCI-H226 = assay: Cytotoxicity against human NCI-H226 cells at 10 uM after 48 hrs by SRB assay; format: functional; conditions: NCI-H226, 48 h, read-out: GI
OVCAR-5 = assay: Cytotoxicity against human OVCAR5 cells at 10 uM after 48 hrs by SRB assay; format: functional; conditions: OVCAR-5, 48 h, read-out: GI
DU-145 = assay: Cytotoxicity against human DU145 cells at 10 uM after 48 hrs by SRB assay; format: functional; conditions: DU-145, 48 h, read-out: GI
UACC-257 = assay: Cytotoxicity against human UACC257 cells at 10 uM after 48 hrs by SRB assay; format: functional; conditions: UACC-257, 48 h, read-out: GI
MCF7 = assay: Cytotoxicity against human MCF7 cells at 10 uM after 48 hrs by SRB assay; format: functional; conditions: MCF7, 48 h, read-out: GI
HOP-62 = assay: Cytotoxicity against human HOP62 cells at 10 uM after 48 hrs by SRB assay; format: functional; conditions: HOP-62, 48 h, read-out: GI
BT-549 = assay: Cytotoxicity against human BT549 cells at 10 uM after 48 hrs by SRB assay; format: functional; conditions: BT-549, 48 h, read-out: GI
MDA-MB-231 = assay: Cytotoxicity against human MDA-MB-231 cells at 10 uM after 48 hrs by SRB assay; format: functional; conditions: MDA-MB-231, 48 h, read-out: GI
HCT-15 = assay: Cytotoxicity against human HCT15 cells at 10 uM after 48 hrs by SRB assay; format: functional; conditions: HCT-15, 48 h, read-out: GI
SF-295 = assay: Cytotoxicity against human SF295 cells at 10 uM after 48 hrs by SRB assay; format: functional; conditions: SF-295, 48 h, read-out: GI
[1] = n-Octanol-phosphate buffer partition coefficient, log P of the compound at pH 7.4 by shake flask method; format: physicochemical
UO-31 = assay: Cytotoxicity against human UO31 cells at 10 uM after 48 hrs by SRB assay; format: functional; conditions: UO-31, 48 h, read-out: GI
HCC 2998 = assay: Cytotoxicity against human HCC2998 cells at 10 uM after 48 hrs by SRB assay; format: functional; conditions: HCC 2998, 48 h, read-out: GI
HCT-116 = assay: Cytotoxicity against human HCT116 cells at 10 uM after 48 hrs by SRB assay; format: functional; conditions: HCT-116, 48 h, read-out: GI
K562 = assay: Cytotoxicity against human K562 cells at 10 uM after 48 hrs by SRB assay; format: functional; conditions: K562, 48 h, read-out: GI
NCI/ADR-RES = assay: Cytotoxicity against human NCI/ADR-RES cells at 10 uM after 48 hrs by SRB assay; format: functional; conditions: read-out: GI
MDA-MB-435 = assay: Cytotoxicity against human MDA-MB-435 cells at 10 uM after 48 hrs by SRB assay; format: functional; conditions: MDA-MB-435, 48 h, read-out: GI
SN12C = assay: Cytotoxicity against human SN12C cells at 10 uM after 48 hrs by SRB assay; format: functional; conditions: read-out: GI
NCI-H460 = assay: Cytotoxicity against human NCI-H460 cells at 10 uM after 48 hrs by SRB assay; format: functional; conditions: NCI-H460, 48 h, read-out: GI
SK-MEL-5 = assay: Cytotoxicity against human SK-MEL-5 cells at 10 uM after 48 hrs by SRB assay; format: functional; conditions: SK-MEL-5, 48 h, read-out: GI
SF-268 = assay: Cytotoxicity against human SF268 cells at 10 uM after 48 hrs by SRB assay; format: functional; conditions: SF-268, 48 h, read-out: GI
PC-3 = assay: Cytotoxicity against human PC3 cells at 10 uM after 48 hrs by SRB assay; format: functional; conditions: PC-3, 48 h, read-out: GI
[2] = Cytotoxicity against human EKVX cells at 10 uM after 48 hrs by SRB assay; format: functional; conditions: read-out: GI
SF-539 = assay: Cytotoxicity against human SF539 cells at 10 uM after 48 hrs by SRB assay; format: functional; conditions: SF-539, 48 h, read-out: GI
SK-MEL-2 = assay: Cytotoxicity against human SK-MEL-2 cells at 10 uM after 48 hrs by SRB assay; format: functional; conditions: SK-MEL-2, 48 h, read-out: GI

C=CCn1c(C)nc2ccc(Nc3nc(N4CCCC4)nc4ccccc34)cc21
inhibition of growth at 10 µM (ACHN): < 10%
inhibition of growth at 10 µM (U-251): < 10%
inhibition of growth at 10 µM (OVCAR-8): 15.9%
inhibition of growth at 10 µM (OVCAR-3): < 10%
inhibition of growth at 10 µM (SNB-75): 16.3%
inhibition of growth at 10 µM (Hs-578T): 13.1%
inhibition of growth at 10 µM (IGROV-1): < 10%
inhibition of growth at 10 µM (T47D): < 10%
inhibition of growth at 10 µM (TK-10): < 10%
inhibition of growth at 10 µM (786-0): 24%
inhibition of growth at 10 µM (A549): 25.4%
inhibition of growth at 10 µM (MDA-MB-468): < 10%
inhibition of growth at 10 µM (A498): 28.5%
inhibition of growth at 10 µM (SK-MEL-28): 19.8%
inhibition of growth at 10 µM (HL-60(TB)): 11.5%
inhibition of growth at 10 µM (RXF 393): 47.6%
inhibition of growth at 10 µM (SK-OV-3): < 10%
inhibition of growth at 10 µM (NCI-H226): < 10%
inhibition of growth at 10 µM (OVCAR-5): < 10%
inhibition of growth at 10 µM (DU-145): 26.2%
inhibition of growth at 10 µM (UACC-257): < 10%
inhibition of growth at 10 µM (MCF7): 38.1%
inhibition of growth at 10 µM (HOP-62): < 10%
inhibition of growth at 10 µM (BT-549): 13.1%
inhibition of growth at 10 µM (MDA-MB-231): 58%
inhibition of growth at 10 µM (HCT-15): 20.6%
inhibition of growth at 10 µM (SF-295): 16.3%
logD [1]: 2.9
inhibition of growth at 10 µM (UO-31): 31.9%
inhibition of growth at 10 µM (HCC 2998): 76.6%
inhibition of growth at 10 µM (HCT-116): 80.3%
inhibition of growth at 10 µM (K562): 98%
inhibition of growth at 10 µM (NCI/ADR-RES): 16.7%
inhibition of growth at 10 µM (MDA-MB-435): < 10%
inhibition of growth at 10 µM (SN12C): < 10%
inhibition of growth at 10 µM (NCI-H460): 18.7%
inhibition of growth at 10 µM (SK-MEL-5): 37.6%
inhibition of growth at 10 µM (SF-268): 13.1%
inhibition of growth at 10 µM (PC-3): < 10%
inhibition of growth at 10 µM [2]: < 10%
inhibition of growth at 10 µM (SF-539): < 10%
inhibition of growth at 10 µM (SK-MEL-2): < 10%
